System: Cutibacterium acnes
Test: In vitro growth of C. acnes by OD at 600 nm in kinetic for 49 hours, anaerobic
Type: cell-based
Settings: oat xylitol alone
Description: In the present study, the effects of 4 compounds and 5 combinations were evaluated on the growth of two bacterial strains: Staphylococcus epidermidis (S. epidermidis) and Cutibacterium acnes (C. acnes). The bacterial strains were grown individually, and the growth of each bacterial strain was determined in presence of the compounds or combinations by optical density (OD) measurement at 600 nm in kinetic for 24 hours for S. epidermidis strain and for 49 hours for C. acnes strain to determine a bacterial growth curve. To determine the effect of the test compounds and combinations on the growth of bacteria, bacterial suspensions were transferred in a 96-well plate containing the compounds, the combinations or glucose tested at 0.1% and 1%. Bacterial cultures were incubated at 37° C. under agitation and under anaerobic condition for C. acnes strain. All experimental conditions were performed in n=3. Optical densities at 600 nm (OD600 nm) were then read in kinetic for 24 hours for S. epidermidis strain and 49 hours for C. acnes strain using a microplate spectrophotometer (EPOCH2, BioTek Instruments). Raw data were analysed using GraphPad PRISM software (growth curves).

## OC[C@@H](O)[C@H](O)[C@@H](O)CO [Xylitol]
  growth of C. acnes: inhibits
